Results on one compound are retold here after US20070203079A1, “Methods of using small molecule compounds for neuroprotection” (priority 2005, published 2007).

The structures appear in SMILES notation. Where a name gives a salt, the structure may show the parent alone.

Format in all cases: in vivo, C. elegans
Test [1] deals with Pdat-1::GFP+Pdat-1::α-synuclein+Pdat-1::torsinA worms. In words: α-synuclein toxicity assay, wt torsinA. Put shortly: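 C. elegans lines expressing GFP and α-synuclein in dopamine neurons, with wild-type or ΔE torsinA, exposed to compounds; readout is the share of worms keeping all 4 wild-type CEP dopamine neurons as 4-day adults.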
Test [2] deals with Pdat-1::GFP+Pdat-1::torsinA worms (wt torsinA). Nature of the test: 6-OHDA dopaminergic neurodegeneration in worms with wt torsinA. The procedure:
(§1) C. elegans nematodes were grown at 25° C. on NGM plates as described by Brenner (Brenner, Genetics, 1974, 77: 71-94). Two transgenic C. elegans lines were used for primary screens of the Prestwick small molecule library. A transgenic worm line expressing Pdat-1::GFP; with both wild type (Pdat-1::torsinA) or mutant (Pdat-1:::torsinA(ΔE)). Torsin-A expresses a phenotype that results in visible neurodegeneration after treatment with 6-OHDA. Transgenic worms were plated on drug plates and progeny were studied for morphological changes in the 8 dopaminergic neurons present in C. elegans.
(§2) Drugs were administered to C. elegans according to a standard procedure (Rand and Johnson, Methods Cell Biol, 1995, 48: 187-204) by mixing the solubilized drug with the agar medium on which the worms are grown. […]
(§3) Age-synchronized worms were obtained by treating gravid adults with 2% sodium hypochlorite and 0.5M NaOH to isolate embryos (Lewis Fleming, 1995). […] The worms were then washed and spread onto NGM plates seeded with bacteria (OP50) and scored at time points ranging from 2 to 72 h after 6-OHDA exposure.
(§4) Immediately after 6-OHDA treatment, worms containing the transgenes were selected under a fluorescence dissecting microscope, based on the presence of GFP, and transferred to a fresh NGM plate seeded with OP50. […] For ease of analysis, only the four CEP DA neurons in the head of the worm were scored. […]

Test [3] has as its system protein misfolding and aggregation in transgenic worms. In words: Preventative assay of protein aggregation (drug from hatching to L2 stage). To be noted: exposure from hatching to L2 stage; scored at L3 and young adult. In a few lines:
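Transgenic worms were raised on drug plates at 20° C from hatching to L2 (about 3 days), then moved to solvent control plates. Aggregates were counted in L3 worms 8 hours later and in young adults 32 hours later. Scaled effectiveness = […], with A as solvent-only worms, B as lifelong-drug worms and C as pre-L2-exposed worms.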

Test [4] relates to Pdat-1::GFP+Pdat-1::torsinA (ΔE) worms (mutant torsinA). In words: 6-OHDA dopaminergic neurodegeneration in worms with mutant torsinA. The protocol:
as §1, §2, §3, §4

Take `C=N[C@@H](C(=O)N[C@@H]1C(=O)N2[C@@H]1SC(C)(C)[C@@H]2C(=O)O)c1ccccc1` [Compound 235, Metampicillin sodium salt]: the “enhanced wild type DA neuron survival” value in test [1] is given as 30.3±7%. The “neuroprotection against 6-OHDA insult” value was “provides neuroprotection” in test [2] (listed as Metampicillin, sodium salt); “only afforded in Pdat-1::GFP+Pdat-1::torsinA worms expressing wt torsinA” in test [2] (listed as metampicillin sodium salt); “not protected” in test [4]. In test [3], the “preventative effect on protein aggregation” value is recorded as “seem to be beneficial”.
